Reference: article PMC8927117, “Structural Insight into the MCM double hexamer activation by Dbf4-Cdc7 kinase” (Nature Communications, 2022)

Tests used:
[1] = system: T1, MCM double hexamer (MCM-DH, Mcm2-7); assay: cryo-EM structure; design: species or system Saccharomyces cerevisiae; settings: with DDK bound, nucleotide-binding pockets of MCM subunits
T1 construct: endogenous double hexamer from G1 chromatin, TEV-3xFLAG tag on Mcm7 or Mcm2

DDK (Dbf4-Cdc7 kinase) = molecular target: T2, DDK (Dbf4-Cdc7 kinase) (Saccharomyces cerevisiae, UniProt P06243); assay: cryo-EM structure; type: binding; settings: bound to MCM double hexamer, glutaraldehyde Grafix, 1 mM ATP-γ-S, 8 mM Mg(OAc)2; Cdc7 active center
T2 construct: Dbf4 704 residues; with DDK kinase regulatory subunit DBF4
T2 sequence (P06243 whole entry): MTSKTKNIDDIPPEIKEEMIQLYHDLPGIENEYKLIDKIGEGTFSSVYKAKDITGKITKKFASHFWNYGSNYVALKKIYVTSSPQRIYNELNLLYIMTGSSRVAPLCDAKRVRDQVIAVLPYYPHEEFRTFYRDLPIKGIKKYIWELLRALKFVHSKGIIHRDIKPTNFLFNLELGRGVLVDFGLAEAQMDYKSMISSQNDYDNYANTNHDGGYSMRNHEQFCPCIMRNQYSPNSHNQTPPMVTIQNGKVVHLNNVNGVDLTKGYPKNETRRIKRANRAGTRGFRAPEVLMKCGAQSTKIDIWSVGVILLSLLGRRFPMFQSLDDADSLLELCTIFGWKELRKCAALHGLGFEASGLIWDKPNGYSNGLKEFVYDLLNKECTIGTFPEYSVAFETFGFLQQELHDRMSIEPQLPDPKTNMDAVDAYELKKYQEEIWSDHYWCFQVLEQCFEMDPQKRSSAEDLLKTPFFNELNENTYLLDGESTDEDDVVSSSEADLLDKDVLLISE
T2 sequence (P32325 whole entry partner): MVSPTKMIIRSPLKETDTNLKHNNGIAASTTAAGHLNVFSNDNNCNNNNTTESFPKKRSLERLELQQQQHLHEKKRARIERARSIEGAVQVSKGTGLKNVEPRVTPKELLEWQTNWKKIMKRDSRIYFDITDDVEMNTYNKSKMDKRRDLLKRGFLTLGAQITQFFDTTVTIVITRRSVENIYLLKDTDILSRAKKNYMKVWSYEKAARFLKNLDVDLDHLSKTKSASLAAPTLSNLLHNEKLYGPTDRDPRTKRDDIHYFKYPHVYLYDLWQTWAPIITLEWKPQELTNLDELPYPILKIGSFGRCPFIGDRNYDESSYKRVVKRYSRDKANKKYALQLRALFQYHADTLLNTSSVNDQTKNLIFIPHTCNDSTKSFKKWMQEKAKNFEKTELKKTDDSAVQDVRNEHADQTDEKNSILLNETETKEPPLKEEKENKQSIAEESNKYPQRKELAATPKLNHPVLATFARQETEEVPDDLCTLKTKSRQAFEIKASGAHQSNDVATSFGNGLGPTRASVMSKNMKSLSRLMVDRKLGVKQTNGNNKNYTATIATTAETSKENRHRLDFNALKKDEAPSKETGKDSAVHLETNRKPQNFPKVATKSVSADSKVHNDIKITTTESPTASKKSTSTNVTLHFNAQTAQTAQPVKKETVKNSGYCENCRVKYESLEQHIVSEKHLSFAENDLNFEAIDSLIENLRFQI

| Compound | cryo-EM structure ([1]; no ADP added) | cryo-EM structure ([1]; 1 mM ATP-γ-S) | cryo-EM structure (DDK (Dbf4-Cdc7 kinase)) |
| --- | --- | --- | --- |
| Nc1ncnc2c1ncn2[C@@H]1O[C@H](COP(=O)(O)OP(=O)(O)O)[C@@H](O)[C@H]1O [ADP] | nucleotide-binding pockets of MCM subunits were modeled as ATP-γ-S or ADP | – | – |
| Nc1ncnc2c1ncn2[C@@H]1O[C@H](COP(=O)(O)OP(=O)(O)OP(O)(O)=S)[C@@H](O)[C@H]1O [ATP-γ-S] | – | nucleotide-binding pockets of MCM subunits were modeled as ATP-γ-S or ADP | Thr506, is situated close to the γ-phosphate of the ATP-γ-S nucleotide in the active center |
